Bounds are passed on as bounds.

The target in one assay is NRAS Q61K (Homo sapiens, UniProt P01111+P62937, Q61K). The experiment in a line: Disruption of BRAF RBD interaction with Ras (FRET / MOA assay, with Cyclophilin A). The note with it: NRAS Q61K; read-out: NRAS Q61K FRET data IC50. The class given is biochemical. From the text:
(§1) Disruption of B-Raf Ras-Binding Domain (BRAF^RBD) Interaction with K-Ras by Compounds of the Invention (Also Called a FRET Assay or an MOA Assay)
(§2) Note—The following protocol describes a procedure for monitoring disruption of K-Ras G12C (GMP-PNP) binding to BRAF^RBD by a compound of the invention. This protocol may also be executed substituting other Ras proteins or nucleotides.
(§3) The purpose of this biochemical assay was to measure the ability of test compounds to facilitate ternary complex formation between a nucleotide-loaded K-Ras isoform and Cyclophilin A; the resulting ternary complex disrupts binding to a BRAF^RBD construct, inhibiting K-Ras signaling through a RAF effector. Data is reported as IC50 values.
(§4) In assay buffer containing 25 mM HEPES pH 7.3, 0.002% Tween20, 0.1% BSA, 100 mM NaCl and 5 mM MgCl2, tagless Cyclophilin A, His6-K-Ras-GMPPNP, and GST-BRAF^RBD were combined in a 384-well assay plate at final concentrations of 25 μM, 12.5 nM and 50 nM, respectively. Compound was present in plate wells as a 10-point 3-fold dilution series starting at a final concentration of 30 μM. After incubation at 25° C. for 3 hours, a mixture of Anti-His Eu-W1024 and anti-GST allophycocyanin was then added to assay sample wells at final concentrations of 10 nM and 50 nM, respectively, and the reaction incubated for an additional 1.5 hours. […] Compounds that facilitate disruption of a K-Ras:RAF complex were identified as those eliciting a decrease in the TR-FRET ratio relative to DMSO control wells.
(§5) The purpose of this biochemical assay was to measure the ability of test compounds to facilitate ternary complex formation between a nucleotide-loaded K-Ras isoform and Cyclophilin A; the resulting ternary complex disrupts binding to a BRAF^RBDD construct, inhibiting K-Ras signaling through a RAF effector. Data is reported as IC50 values.

The next assay has as its system NCI-H358 (K-Ras G12C). The experiment in a line: CellTiter-Glo cell viability assay, 5-day treatment. It is filed as cell-based. The note with it: Homo sapiens, NCI-H358, 120 h, 5-day treatment; read-out: H358 Cell Viability assay data (K-Ras G12C, IC50). In outline: (§6)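 Five-day compound treatment of plated cells; luminescent read after ~30 min at RT. Percent-of-DMSO data fit to a four-parameter logistic model.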
On the technique in general: In ATP-based viability assays light output follows the ATP content of the culture.

A further assay deals with NRAS Q61R (Homo sapiens, UniProt P01111+P62937, Q61R). The experiment in a line: Disruption of BRAF RBD interaction with Ras (FRET / MOA assay, with Cyclophilin A). The class given is biochemical. To be noted: NRAS Q61R; read-out: NRAS Q61R FRET data IC50.
Source text: as §1, §2, §3, §4, §5

A further assay deals with Capan-1 (K-Ras G12V). In words: CellTiter-Glo cell viability assay, 5-day treatment. The class given is cell-based. The note with it: Homo sapiens, CAPAN-1, 120 h, 5-day treatment; read-out: Capan-1 Cell Viability assay data (K-Ras G12V, IC50). In outline: as §6
The next assay deals with KRAS G12S (Homo sapiens, UniProt P01116+P62937, G12S). The experiment in a line: Disruption of BRAF RBD interaction with Ras (FRET / MOA assay, with Cyclophilin A). The note with it: read-out: KRAS G12S FRET data, IC50. It is filed as biochemical. An outline of the steps:
(§7)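 Cyclophilin A-dependent ternary complex assay. K-Ras loaded with nucleotide; BRAF RBD as effector. Cpd top 30 μM final, 3 h at 25 °C. Readout: TR-FRET ratio, IC50.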

A further assay addresses KRAS G13C (Homo sapiens, UniProt P01116+P62937, G13C). Described as above. It is filed as biochemical. The note with it: read-out: KRAS G13C FRET data, IC50. In outline:
as §7

The target of the next assay is KRAS G12D (Homo sapiens, UniProt P01116+P62937, G12D). The description is as above. It is filed as biochemical. The note with it: read-out: KRAS G12D FRET data, IC50. In outline:
as §7

The next assay has as its target KRAS G12V (Homo sapiens, UniProt P01116+P62937, G12V). Described as above. It is filed as biochemical. The note with it: KRAS G12V; read-out: KRAS G12V FRET data IC50. In outline:
as §7

A further assay addresses NRAS G12C (Homo sapiens, UniProt P01111+P62937, G12C). Described as above. The class given is biochemical. To be noted: NRAS G12C; read-out: NRAS G12C FRET data IC50.
For the next assay, the target named is KRAS G13D (Homo sapiens, UniProt P01116+P62937, G13D). The description is as above. It is filed as biochemical. The note with it: KRAS G13D; read-out: KRAS G13D FRET data IC50. An outline of the steps:
as §7

The target of the next assay is KRAS G12C (Homo sapiens, UniProt P01116+P62937, G12C). The assay is described as above. The class given is biochemical. To be noted: read-out: KRAS G12C FRET data, IC50. An outline of the steps: as §7
A further assay deals with KRAS WT (Homo sapiens, UniProt P01116+P62937). Described as above. The note with it: KRAS WT; read-out: KRAS WT FRET data IC50. The class given is biochemical. In outline:
as §7

KRAS G13C, sequence (P01116 1-169 isoform P01116-2 G13C): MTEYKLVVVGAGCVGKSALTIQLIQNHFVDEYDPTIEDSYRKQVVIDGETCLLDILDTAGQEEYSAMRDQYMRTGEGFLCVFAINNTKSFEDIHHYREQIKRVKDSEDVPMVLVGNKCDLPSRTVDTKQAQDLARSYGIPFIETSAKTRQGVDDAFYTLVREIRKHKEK
KRAS G13C, sequence (P62937 whole entry): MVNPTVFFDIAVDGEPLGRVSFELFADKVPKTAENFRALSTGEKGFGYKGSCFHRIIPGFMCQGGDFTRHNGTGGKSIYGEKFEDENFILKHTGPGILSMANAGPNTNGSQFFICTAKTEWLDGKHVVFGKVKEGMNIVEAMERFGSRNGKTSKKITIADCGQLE
KRAS G12D, sequence (P01116 1-169 isoform P01116-2 G12D limits assumed): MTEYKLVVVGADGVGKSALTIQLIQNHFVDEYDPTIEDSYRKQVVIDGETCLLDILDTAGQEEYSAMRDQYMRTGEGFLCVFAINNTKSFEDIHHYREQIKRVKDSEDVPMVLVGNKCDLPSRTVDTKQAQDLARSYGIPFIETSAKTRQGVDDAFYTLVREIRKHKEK
KRAS G12D, sequence (P62937 whole entry): as the sequence (P62937 whole entry) above
KRAS G12V, sequence (P01116 1-169 isoform P01116-2 G12V limits assumed): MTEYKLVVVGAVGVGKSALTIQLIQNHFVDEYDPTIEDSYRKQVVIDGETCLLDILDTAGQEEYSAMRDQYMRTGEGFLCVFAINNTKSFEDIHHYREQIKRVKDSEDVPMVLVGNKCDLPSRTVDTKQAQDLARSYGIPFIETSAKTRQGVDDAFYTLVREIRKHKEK
KRAS G12V, sequence (P62937 whole entry): as the sequence (P62937 whole entry) above
NRAS G12C, sequence (P01111 whole entry G12C): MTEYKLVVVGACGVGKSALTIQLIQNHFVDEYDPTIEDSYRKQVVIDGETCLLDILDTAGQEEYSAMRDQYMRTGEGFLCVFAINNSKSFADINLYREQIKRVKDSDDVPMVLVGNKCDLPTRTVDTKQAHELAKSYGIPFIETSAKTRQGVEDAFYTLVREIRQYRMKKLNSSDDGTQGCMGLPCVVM
NRAS G12C, sequence (P62937 whole entry): as the sequence (P62937 whole entry) above
KRAS G12C, sequence (P01116 1-169 isoform P01116-2 G12C): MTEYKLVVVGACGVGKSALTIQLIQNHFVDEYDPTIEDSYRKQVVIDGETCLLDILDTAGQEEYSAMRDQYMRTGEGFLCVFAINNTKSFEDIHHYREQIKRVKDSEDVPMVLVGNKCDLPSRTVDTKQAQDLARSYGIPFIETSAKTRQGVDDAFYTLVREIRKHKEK
KRAS G12C, sequence (P62937 whole entry): as the sequence (P62937 whole entry) above
KRAS G13D, sequence (P01116 1-169 isoform P01116-2 G13D limits assumed): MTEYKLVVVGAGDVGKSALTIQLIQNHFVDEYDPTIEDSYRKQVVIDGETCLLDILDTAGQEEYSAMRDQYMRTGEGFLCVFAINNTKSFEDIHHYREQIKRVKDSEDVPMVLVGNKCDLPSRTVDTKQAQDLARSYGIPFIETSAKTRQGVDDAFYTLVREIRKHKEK
KRAS G13D, sequence (P62937 whole entry): as the sequence (P62937 whole entry) above
KRAS WT, sequence (P01116 1-169 isoform P01116-2 limits assumed): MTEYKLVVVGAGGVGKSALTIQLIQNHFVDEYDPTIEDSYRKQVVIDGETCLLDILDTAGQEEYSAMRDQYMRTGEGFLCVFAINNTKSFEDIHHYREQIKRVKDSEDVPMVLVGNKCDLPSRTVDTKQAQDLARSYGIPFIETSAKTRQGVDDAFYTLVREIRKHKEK
KRAS WT, sequence (P62937 whole entry): as the sequence (P62937 whole entry) above
KRAS G12S, sequence (P01116 1-169 isoform P01116-2 G12S limits assumed): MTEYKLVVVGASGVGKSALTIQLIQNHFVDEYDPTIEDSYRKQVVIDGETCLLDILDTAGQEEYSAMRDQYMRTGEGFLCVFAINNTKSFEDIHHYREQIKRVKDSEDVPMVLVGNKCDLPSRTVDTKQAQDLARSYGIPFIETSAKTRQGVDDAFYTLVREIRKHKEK
KRAS G12S, sequence (P62937 whole entry): as the sequence (P62937 whole entry) above
NRAS Q61R, sequence (P01111 whole entry Q61R): as the sequence (P01111 whole entry G12C) above, with C12G, Q61R counted along it
NRAS Q61R, sequence (P62937 whole entry): as the sequence (P62937 whole entry) above
NRAS Q61K, sequence (P01111 whole entry Q61K, the tested form may be a part): as the sequence (P01111 whole entry G12C) above, with C12G, Q61K counted along it
NRAS Q61K, sequence (P62937 whole entry, the tested form may be a part): as the sequence (P62937 whole entry) above

Broadly, the IC50 is the concentration needed to halve the response being measured. On to `CCn1c(-c2cccnc2[C@H](C)OC)c2c3cc(ccc31)-c1csc(n1)C[C@H](NC(=O)[C@H](C(C)C)N(C)C(=O)N1CC(C(C)(C)O)C1)C(=O)N1CCC[C@H](N1)C(=O)OCC(C)(C)C2` (atropisomer, axis not shown) [Example A289], for which the IC50 on NRAS Q61K is 10 to 100 nM; in the assay with NCI-H358 (K-Ras G12C), less than 10 nM.

Consider `CCC[C@H]1CCN1C(=O)N[C@H]1Cc2nc(cs2)-c2ccc3c(c2)c(c(-c2cccnc2[C@H](C)OC)n3CC)CC(C)(C)COC(=O)[C@@H]2CCCN(N2)C1=O` [Example A264], for which the half-inhibitory concentration (IC50) at NRAS Q61R lay within 100 to 1000 nM.

Regarding `CCn1c(-c2cccnc2[C@H](C)OC)c2c3cc(ccc31)-c1csc(n1)C[C@H](NC(=O)[C@H](C(C)C)N(C)C(=O)N1CCO[C@H](C)C1)C(=O)N1CCC[C@H](N1)C(=O)OCC(C)(C)C2` [Example A310], on NRAS Q61R, the concentration for half-maximal inhibition (IC50) was 10 to 100 nM.

For `CCn1c(-c2cccnc2[C@H](C)OC)c2c3cc(ccc31)-c1csc(n1)C[C@H](NC(=O)[C@H](C(C)C)N(C)C(=O)N(C)C(C)C)C(=O)N1CCC[C@H](N1)C(=O)OCC(C)(C)C2` [Example A350], the half-maximal inhibitory concentration (IC50) lay in the range of 100 to 1000 nM in the assay on Capan-1 (K-Ras G12V); 10 to 100 nM in the assay on NCI-H358 (K-Ras G12C); 100 to 1000 nM at KRAS G12S; 100 to 1000 nM on KRAS G13C; 100 to 1000 nM on KRAS G12D; 100 to 1000 nM at KRAS G12V. Besides, the IC50 on NRAS G12C is 10 to 100 nM; on KRAS G13D, 100 to 1000 nM; at KRAS G12C, 10 to 100 nM; at KRAS WT it was 100 to 1000 nM.

`CCN(C(=O)N(C)[C@H](C(=O)N[C@H]1Cc2nc(cs2)-c2ccc3c(c2)c(c(-c2cccnc2[C@H](C)OC)n3CC)CC(C)(C)COC(=O)[C@@H]2CCCN(N2)C1=O)C(C)C)C1CC1` [Example A352]: the IC50 with Capan-1 (K-Ras G12V) fell in the range of 100 to 1000 nM; with NCI-H358 (K-Ras G12C) it was 10 to 100 nM; on KRAS G12S it was 100 to 1000 nM; on KRAS G13C, 100 to 1000 nM; on KRAS G12D it was 1000 to 10000 nM; at KRAS G12V, 100 to 1000 nM. The IC50 on NRAS G12C, at KRAS G13D, at KRAS G12C and on KRAS WT was 100 to 1000 nM in each case.

In the case of `CCn1c(-c2cccnc2[C@H](C)OC)c2c3cc(ccc31)-c1csc(n1)C[C@H](NC(=O)[C@H](C(C)C)N(C)C(=O)N(C)C1CC1)C(=O)N1CCC[C@H](N1)C(=O)OCC(C)(C)C2` [Example A353], the IC50 in the assay on Capan-1 (K-Ras G12V) lay within 10 to 100 nM; in the assay on NCI-H358 (K-Ras G12C) it was 10 to 100 nM; at KRAS G12S, 100 to 1000 nM; at KRAS G13C, 100 to 1000 nM; on KRAS G12D it was 100 to 1000 nM; on KRAS G12V it was 100 to 1000 nM. Besides, the IC50 fell in the range of 10 to 100 nM on NRAS G12C, 100 to 1000 nM on KRAS G13D, 10 to 100 nM on KRAS G12C and 100 to 1000 nM at KRAS WT.

In the case of `CCn1c(-c2cccnc2[C@H](C)OC)c2c3cc(ccc31)-c1cc(O)cc(c1)C[C@H](NC(=O)[C@H](C(C)C)N(C)C(=O)[C@H]1CCN(C(=O)[C@H]3CCCN3)C1)C(=O)N1CCC[C@H](N1)C(=O)OCC(C)(C)C2` [Example A378], the IC50 in the assay on Capan-1 (K-Ras G12V) was 1000 to 10000 nM; in the assay with NCI-H358 (K-Ras G12C), 100 to 1000 nM; at KRAS G12S it was 10 to 100 nM; at KRAS G13C it was 10 to 100 nM; on KRAS G12D, 10 to 100 nM; on KRAS G12V it was 10 to 100 nM. Also, the IC50 at NRAS G12C, on KRAS G13D, on KRAS G12C and at KRAS WT was 10 to 100 nM in each case.

With `CCn1c(-c2cccnc2[C@H](C)OC)c2c3cc(ccc31)-c1cc(O)cc(c1)C[C@H](NC(=O)[C@H](C(C)C)N(C)C(=O)[C@H]1CCN(C(=O)[C@@H]3CCCN3C)C1)C(=O)N1CCC[C@H](N1)C(=O)OCC(C)(C)C2` [Example A385], the IC50 was in the range of 100 to 1000 nM in the assay on Capan-1 (K-Ras G12V); 100 to 1000 nM in the assay on NCI-H358 (K-Ras G12C); 10 to 100 nM on KRAS G12S; 10 to 100 nM on KRAS G13C; 10 to 100 nM at KRAS G12D; 10 to 100 nM at KRAS G12V. In addition, the IC50 at NRAS G12C, on KRAS G13D, at KRAS G12C and at KRAS WT was 10 to 100 nM each time.

On to `CCn1c(-c2cccnc2[C@H](C)OC)c2c3cc(ccc31)-c1cc(O)cc(c1)C[C@H](NC(=O)[C@H](C(C)C)N(C)C(=O)[C@H]1CC[C@@H](CN(C)C)O1)C(=O)N1CCC[C@H](N1)C(=O)OCC(C)(C)C2` [Example A397], for which the IC50 was 100 to 1000 nM in the assay with Capan-1 (K-Ras G12V); 100 to 1000 nM with NCI-H358 (K-Ras G12C); 10 to 100 nM at KRAS G12S; 10 to 100 nM on KRAS G13C; 10 to 100 nM at KRAS G12D; 100 to 1000 nM at KRAS G12V. In addition, the IC50 on NRAS G12C, on KRAS G13D, on KRAS G12C and on KRAS WT was 10 to 100 nM each time.

Consider `CCn1c(-c2cccnc2[C@H](C)OC)c2c3cc(ccc31)-c1cc(O)cc(c1)C[C@H](NC(=O)[C@H](C(C)C)N(C)C(=O)[C@@H]1OC[C@@H]3CCC[C@@H]31)C(=O)N1CCC[C@H](N1)C(=O)OCC(C)(C)C2` [Example A407], for which the IC50 in the assay with Capan-1 (K-Ras G12V) was in the range of 100 to 1000 nM; in the assay with NCI-H358 (K-Ras G12C) it was 100 to 1000 nM; on KRAS G12S it was 10 to 100 nM; at KRAS G13C it was 10 to 100 nM; on KRAS G12D it was 100 to 1000 nM; at KRAS G12V, 10 to 100 nM. In addition, the IC50 at NRAS G12C, on KRAS G13D, at KRAS G12C and at KRAS WT was 10 to 100 nM in each case.

For `CCn1c(-c2cccnc2[C@H](C)OC)c2c3cc(ccc31)-c1csc(n1)C[C@H](NC(=O)[C@H](C(C)C)N(C)C(=O)N1CC(C#N)(N(C)C)C1)C(=O)N1CCC[C@H](N1)C(=O)OCC(C)(C)C2` [Example A452], the IC50 with Capan-1 (K-Ras G12V) was 10 to 100 nM; in the assay with NCI-H358 (K-Ras G12C), 10 to 100 nM; at KRAS G12S, 100 to 1000 nM; at KRAS G13C it was 100 to 1000 nM; at KRAS G12D, 1000 to 10000 nM; at KRAS G12V, 100 to 1000 nM. Further, the IC50 lay within 10 to 100 nM on NRAS G12C, 100 to 1000 nM at KRAS G13D, 10 to 100 nM on KRAS G12C and 100 to 1000 nM at KRAS WT.

Source of the values: patent US20230233569A1 (Revolution Medicines, Inc., priority 2020, published 2023).
